Experimental data published in PMC2801561 (Cell, 2009).
Each block holds one molecule with its values, some of them ahead of it.

How the values were obtained:
[1] = biological target: GST-RhoBTB3 Rho domain (residues 1-220) (Homo sapiens, UniProt O94955, N138D); test: [γ-32P]ATP hydrolysis; assay type: biochemical; conditions: MgCl2; labelled compound; 20 nM protein
[2] = biological target: T1, TIP47 (endogenous, K562) (human (endogenous in K562)), O60664; test: native gel or EMSA; conditions: remark: other sources report otherwise
T1 chain: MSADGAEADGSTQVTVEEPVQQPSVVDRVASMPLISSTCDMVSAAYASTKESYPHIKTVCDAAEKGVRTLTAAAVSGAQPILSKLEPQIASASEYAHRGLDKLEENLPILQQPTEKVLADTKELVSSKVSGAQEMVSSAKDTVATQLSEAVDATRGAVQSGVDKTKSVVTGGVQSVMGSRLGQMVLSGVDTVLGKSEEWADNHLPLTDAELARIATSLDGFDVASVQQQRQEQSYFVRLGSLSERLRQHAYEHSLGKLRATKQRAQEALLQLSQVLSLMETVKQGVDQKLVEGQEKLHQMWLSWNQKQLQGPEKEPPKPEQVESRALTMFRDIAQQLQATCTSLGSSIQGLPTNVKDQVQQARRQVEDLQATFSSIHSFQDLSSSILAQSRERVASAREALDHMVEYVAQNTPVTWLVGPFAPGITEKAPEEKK

GST-RhoBTB3 Rho domain (residues 1-220), sequence (O94955 1-220 N138D): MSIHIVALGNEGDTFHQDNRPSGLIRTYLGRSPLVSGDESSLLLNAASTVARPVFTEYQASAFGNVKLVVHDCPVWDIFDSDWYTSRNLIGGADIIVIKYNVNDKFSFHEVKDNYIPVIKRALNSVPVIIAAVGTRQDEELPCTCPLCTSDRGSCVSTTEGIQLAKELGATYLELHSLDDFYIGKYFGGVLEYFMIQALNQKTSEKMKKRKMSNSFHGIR

Molecule: Nc1ncnc2c1ncn2[C@@H]1O[C@H](COP(=O)(O)OP(=O)(O)OP(=O)(O)O)[C@@H](O)[C@H]1O [ATP]
[γ-32P]ATP hydrolysis [1]: reverted to the D found in most other small GTPases (N138D), significantly less binding

stoichiometry N [2]: 2
B1: TIP47 (endogenous, K562), O60664 1-434 (natural protein)
chain: T1 chain
